According to PubChem BioAssay (NCI):
Values joined by “and” are separate entries in the source; they are usually repeats but may differ in a detail not shown here. Identical values can stand only once.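 Results reflect a 48-hour exposure of cells in 96-well plates to compound at five concentrations. GI50 = concentration required for 50% inhibition of growth. TGI: concentration producing complete growth inhibition.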

Columns and labels:
Assay in all cases: inhibition of tumour cell growth, NCI panel, 48 h
[1] = test system: A498 renal
[2] = test system: CAKI-1 renal
[3] = test system: HCT-15 colon
[4] = test system: NCI-H226 lung
[5] = test system: NCI-H460 lung
[6] = test system: RPMI-8226 leukemia
[7] = test system: RXF 393 renal
[8] = test system: SK-MEL-5 melanoma
[9] = test system: SNB-75 CNS
[10] = test system: UACC-257 melanoma

SMILES | GI50 [1] [µM] | TGI [1] | GI50 [2] [µM] | TGI [2] [µM] | GI50 [3] [µM] | TGI [3] [µM] | GI50 [4] [µM] | TGI [4] [µM] | GI50 [5] [µM] | TGI [5] [µM] | GI50 [6] [µM] | TGI [6] [µM] | GI50 [7] [µM] | TGI [7] [µM] | GI50 [8] [µM] | TGI [8] [µM] | GI50 [9] [µM] | TGI [9] [µM] | GI50 [10] [µM] | TGI [10] [µM]
Nc1nc(Nc2cccc(F)c2)nc2ccccc12 | 1.4 | 44.8 µM | 16 | 44.9 | 18.4 | 47 | 35 | > 100 | 20.1 | 57.3 | 23.1 | 71.1 | 16.9 | 45.3 | 14.5 | 28.3 | 15.8 | 50.4 | 17.4 | 34.1
O=C(O)c1c[nH]cc1C(=O)O |  | > 100 µM |  | > 100 |  | > 100 |  | > 100 |  | > 100 |  | > 100 |  | > 100 |  | > 100 |  | > 100 |  | > 100
CC(C)OC(=O)c1ccc2[nH]c(O)c(C(=Nc3ccc(N(C)C(=O)CN4CCN(C)CC4)cc3)c3ccccc3)c2c1 | 0.188 | 1 µM | 0.0952 | 1.12 | 0.372 | 1.52 | 1.1 | 2.83 | 0.448 | 1.89 | 0.385 | 1.79 | 0.224 | 0.652 | 0.541 | 1.8 | 0.101 | 1.54 | 1.54 | 3.57
Cc1ccc2c(c1)ncn2-c1ncnc2c1CC(C)c1ccccc1N2C (stereo not drawn) | 0.0567 | 17 µM | 0.127 | 13.7 | 0.0984 | 12.5 | 1.21 | 18.7 | 0.225 | 11.3 | 0.149 | 1.82 | 0.0577 | 16.4 | 0.138 | 1.32 | 0.0892 | 18.1 |  | 
Cn1cc(-c2ccc3c(c2)CCN3C(=O)Cc2cccc(C(F)(F)F)c2)c2c(N)ncnc21 | 0.453 | 6.56 µM | 1.52 | 40.3 | 1.77 | 16.1 | 3.85 | 19.1 | 3.85 | 19.7 | 3.84 | 27.7 | 3.46 | 19.5 |  |  | 2.76 | 19 | 5.37 | 24.3
CCc1c2c(nc3cccc(N)c13)-c1cc3c(c(=O)n1C2)COC(=O)[C@]3(O)CC | 0.0569 | 0.487 µM and 0.0609 µM |  | 0.0349 |  | > 100 | 0.00208 | 0.157 | 0.002 |  | 0.0932 | 0.56 | 0.0636 |  | 0.00329 |  | 0.0158 | 16.9 |  | 
CCc1c[nH]c2ncnc(N3CC[C@@](N)(CNC(=O)c4ccc(F)cc4F)C3)c12 | 16.4 | 53.4 µM | 18.7 | > 89.8 | 43.6 | > 100 | 22 | > 100 | 35 | > 100 | 28.6 | > 100 | 7.16 | 35.9 | 32.8 | > 100 | 16.3 | 77.5 | 34.5 | > 100
Clc1ccc(CN2COc3c(cc(Cl)c4cccnc34)C2)cc1 |  | 24.8 µM |  | 12.6 |  | 13.5 |  | 8.67 |  | 9.19 |  | 3.42 |  | 5.86 |  | 8.92 |  | 11 |  | 9.13
CCO[C@@H]1C2C=CC(C2)[C@H]1[N+](=O)[O-] (stereo partly drawn) |  | > 100 µM |  | > 100 |  | > 100 |  | > 100 |  | > 100 |  | > 100 |  | > 100 |  | > 100 |  | > 100 |  | > 100
O=C1CCC2(c3ccccc3)Nc3cc(Cl)ccc3N12 (stereo not drawn) |  | 98.7 µM |  | 87.1 |  | > 100 |  | 65.1 |  | > 100 |  | 58.6 |  | > 100 |  | 32.4 |  | 64.9 |  | 71.5
CC(=O)Oc1ccccc1C(=O)C1c2cccc(O)c2C(=O)c2c(O)cccc21 |  | 7.1 µM |  | 5.39 |  | 9.56 |  | 3.7 |  | 2.1 |  | 2.48 |  | 1.46 |  | 2.4 |  | 4.54 |  | 3.76
COc1cc(/C=C(/c2ccccc2)[N+](=O)[O-])c(OC)c2c1OCO2 | 1.54 | 3 µM | 1.76 | 3.95 | 0.389 | 1.6 | 1.79 | 3.46 | 1.87 | 3.58 | 0.459 | 4.1 | 1.49 | 2.85 | 1.75 | 3.14 | 0.539 | 2.04 | 1.58 | 3.4
O=c1oc2ccc(Cl)cc2c(=O)n1-c1ccc(I)cc1F | 0.055 | 0.182 µM | 0.172 | 1.02 | 0.231 | 6.74 | 0.566 | 2.92 | 0.199 | > 23.8 | 0.0907 | 0.436 | 0.339 | 1.57 | 0.095 | 0.279 | 0.2 | 1.36 | 0.137 | 1.61
Cn1cc(-c2ccc(CNc3cc(-c4cnc5cc(OCCCN6CCCC6)ccn45)ncn3)cc2)cn1 | 16.2 | 31.9 µM | 1.65 | 3.15 | 2.81 | 12 | 2.03 | 4.81 | 1.77 | 3.37 | 2.15 | 5.55 | 1.61 | 3.33 | 1.51 | 2.85 | 1.79 | 7.78 | 2.23 | 5.5
COC(=O)C(=O)C(C(=O)C=C(C)C)C(=O)C(=O)Nc1cccc(C(C)=O)c1 (stereo not drawn) |  | > 100 µM |  | > 100 |  | > 100 |  | > 100 |  | > 100 |  | > 100 |  | > 100 |  | > 100 |  | > 100 |  | > 100
C[C@H](CS(C)(=O)=O)Nc1ncc2cc(Oc3ccc(F)cc3F)c(=O)n(C)c2n1 | > 25 | > 25 µM | > 25 | > 25 | > 25 | > 25 | > 25 | > 25 | > 25 | > 25 | > 25 | > 25 | > 25 | > 25 | > 25 | > 25 | > 25 | > 25 | > 25 | > 25

SMILES | GI50 [1] [µM] | TGI [1] | GI50 [2] [µM] | TGI [2] [µM] | GI50 [3] [µM] | TGI [3] [µM] | GI50 [4] [µM] | TGI [4] [µM] | GI50 [5] [µM] | TGI [5] [µM] | GI50 [6] [µM] | TGI [6] [µM] | GI50 [7] [µM] | TGI [7] [µM] | GI50 [8] [µM] | TGI [8] [µM] | GI50 [9] [µM] | TGI [9] [µM] | GI50 [10] [µM] | TGI [10] [µM]
COC(=O)C(Cc1nc2ccc(Cl)cc2[nH]c1=O)C(=O)C(=O)Nc1ccccc1[N+](=O)[O-] (stereo not drawn) |  | > 100 µM |  | > 100 |  | > 100 |  | > 100 |  | > 100 |  | > 100 |  | > 100 |  | > 100 |  | > 100 |  | > 100
CCOC(=O)N1C2C=C(C)C(C3C(C)C(=O)N31)N(C(=O)c1ccccc1)O2 (stereo not drawn) |  | > 100 µM |  | > 100 |  | > 100 |  | > 100 |  | > 100 |  | > 100 |  | > 100 |  | > 100 |  | > 100 |  | > 100
O=C(Nc1ccc2c(c1)oc(=O)c1ccccc12)C(Cl)Cl |  | > 100 µM |  | > 100 |  | > 100 |  | > 100 |  | 92.5 |  | 32.5 |  | > 100 |  | > 100 |  | > 100 |  | > 100
Cc1cccc(C)c1NC(=O)CCCC(=O)C1CCC/C1=N\NC(=O)C(=O)NN (stereo not drawn) |  | > 100 µM |  | > 100 |  | > 100 |  | > 100 |  | > 100 |  | > 100 |  | > 100 |  | > 100 |  | > 100 |  | > 100
Oc1cc(Cl)ccc1Oc1ccc(Cl)cc1Cl | 2.8 | 14.1 µM | 4.84 | 17.8 | 3.31 | 10.9 | 2.32 | 6.82 | 2.85 | 8.3 | 2.02 | 5.7 | 2.06 | 5.09 | 1.75 | 3.59 | 2.31 | 8.71 | 2.28 | 6.48
CN(C)c1ccc(N=Nc2c([O-])ccc3ccccc23)cc1.[C-]#[O+].[C-]#[O+].[Ir] | > 100 | > 100 µM | 16.2 | 33.5 | 18.5 | 34.9 | > 53.9 | > 100 | > 100 | > 100 | 22.7 | > 65.1 | 18.3 | 32.9 | 24.9 | > 57.7 | 54.8 | > 100 | 5.71 | 36
Fc1ccc(Nc2nccc(-c3c(-c4ccc(C(F)(F)F)cc4)nn4ncccc34)n2)cc1F | > 25 | > 25 µM | > 25 | > 25 | > 25 | > 25 | > 25 | > 25 | > 25 | > 25 | > 25 | > 25 | > 25 | > 25 | > 25 | > 25 | > 25 | > 25 | > 25 | > 25
Fc1ccc(Nc2nc(NCCNc3ccnc4cc(Cl)ccc34)nc(N3CCOCC3)n2)cc1 | 1.48 | 8.47 µM | 5.59 | 19.5 | 2.46 | 6.56 | 14.4 | 33.4 | 3.44 | 14 | 3.15 | 14.6 | 1.89 | 6.76 | 2.15 | 4.62 | 3.13 | 16.2 | 1.9 | 3.65
Cc1cccc(C(C)(C)C)c1NC(=O)C(=O)C(c1cnc2ccccc2n1)[N+](=O)[O-] (stereo not drawn) |  | > 100 µM |  | > 100 |  | > 100 |  | > 100 |  | > 100 |  | > 100 |  | > 100 |  | > 100 |  | > 100 |  | > 100
CCN1C(=O)N(CC)C2C1NN=c1s/c(=C3\C(=O)N(C)c4ccccc43)c(=O)n12 (stereo not drawn) | 0.23 | 0.908 µM | 0.448 | 97.4 | 0.536 | > 100 | 1.45 | > 100 | 1.29 | > 100 | 0.89 | 12.6 | 0.587 | 4.81 | 0.837 | > 89.2 | 0.397 | 20.3 | 4.2 | > 100
NCc1ccc(-n2c(-c3nonc3N)nc3cnccc32)cc1 | 1.38 | > 22.1 µM | 2.27 | > 25 | 6.85 | > 25 | 0.912 | > 25 | 13.7 | > 25 | > 23.2 | > 25 | 1.76 | 11.3 | 9.25 | > 25 | 0.291 | > 25 | > 25 | > 25
CCSc1nc(COC(=O)NC)c(COC(=O)NC)n1C |  | > 82 µM |  | > 78.2 |  | > 100 |  | > 100 |  | > 100 |  | > 100 |  | 78.5 |  | > 100 |  | > 100 |  | > 100
CC(C)(Br)C(=O)/C=C/c1ccccc1 |  | 36.9 µM |  | 17.3 |  | 4.63 |  | 24 |  | 63.4 |  | 3.14 |  | 3.12 |  | 27.5 |  | 32.6 |  | 28.8
C=CCc1ccc(O)c(-c2cc(C3Oc4c(-c5cc(CC=C)ccc5O)cc(O)cc4[C@@H]3CO)ccc2O)c1 (stereo partly drawn) |  | 61.5 µM |  | > 100 |  | 29.3 |  | > 100 |  | > 100 |  | 65.6 |  | 55.8 |  | 65 |  | > 100 |  | > 100
CSc1nc(-c2ccccc2)c2c(n1)-c1ccccc1CC2 |  | > 100 µM |  | > 100 |  |  |  | > 100 |  | > 100 |  | > 100 |  | > 100 |  | > 100 |  | > 100 |  | > 100
